Measured values published in US20090074895A1, “COMPOSITION AND USES THEREOF” (VANADIS BIOSCIENCE LTD, priority 2005, published 2009).
“Also recorded” adds a separate entry of the source.

Columns and labels:
Format in all cases: in vivo, rat
diabetic rats [1] = assay: Serum cholesterol concentrations after 7 day oral treatment of diabetic rats (lovastatin, MKH, combination); details: for HDL cholesterol / LDL cholesterol / LDL/HDL ratio / Total cholesterol: 7 day oral treatment, lovastatin 20 mg/kg/day, MKH 2 mg/kg/day, n = 8; for Change in total cholesterol (in words): 7 days oral treatment
diabetic rats [2] = assay: C peptide serum concentration, diabetic rats; details: for C peptide serum concentration: doses daily for 5 days orally, n = 8
Method: (§1) In this study white, adult male Wistar rats with average weights between 200 to 300 grams were used. During the study, the animals had free access to food and water and were exposed to changes of dark and light every 12 hours. Access to the food was restricted 12 hours before measurement of glucose blood level with free access to water.
(§2) The experiment was performed on a normoglycaemic group (Group 1, 32 rats, 8 per treatment) and diabetic rats (Group 2, 32 rats, 8 per treatment). For the diabetic rat experiments diabetes was induced with intraperitoneal injection of alloxan 100 mg/kg. Alloxan is very well verified diabetogenic substance for inducing diabetes in rats and other animal species (rabbit, dog, mice et cetera). See, for example, McLetchie, J.R. Coll Physicians Edinb, 32: 134-142, 2002; Lenzen & Panten, Diabetologia, 31: 337-342, 1988; Shaw et al., Lancet, 11: 384-386, 1943; Goldner & Gomori, Endocrinology, 35: 241-268, 1943.
(§3) 1). Saline solution, 1 ml/kg, per orally, daily for 5 days (control group); 2). Stevioside, 20 mg/kg, orally, daily for 5 days; 3). Sodium salt of 3α,7α-dihydroxy-12-oxo-5β-cholanate (monoketocholic acid-MKC), 4 mg/kg, orally, daily for 5 days; and 4). 1 ml/kg of the composition described in Example 1, orally, daily for 5 days.
(§4) In the diabetic rat the criterion for successful diabetes induction was blood glucose greater than 20 mmol/L on the third day after the last alloxan dose after 3 hours of fasting with free access to water.
15 minutes after the 5th dose, the animals were exposed to an oral glucose tolerance test (OGTT) using 4 g/kg, orally. Glucose blood concentrations were measured before the treatment, after the 5th dose, before OGTT, and 30 minutes after OGTT. […]
All biochemical analyses of serum were done by standard procedures, as recommended by the International Federation for Clinical Chemistry (IFCC), on automatic spectrophotometer LISA 300 plus with International Quality Control. The following were measured in serum: […]

normoglycaemic rats [3] = assay: C peptide serum concentration, normoglycaemic rats; details: for Effect on C peptide levels (in words): non-diabetic rats, 5 days treatment; for C peptide serum concentration: normoglycaemic rats, doses daily for 5 days orally, n = 8
Method: as §1, §2, §3
(§5) 15 minutes after the 5th dose, the animals were exposed to an oral glucose tolerance test (OGTT) using 4 g/kg, orally. Glucose blood concentrations were measured before the treatment, after the 5th dose, before OGTT, and 30 minutes after OGTT. Then the animals were anaesthetised with urethane injected intraperitoneally, 750 mg/kg, and blood samples for further biochemical analyses were taken by cardiopunction.
(§6) All biochemical analyses of serum were done by standard procedures, as recommended by the International Federation for Clinical Chemistry (IFCC), on automatic spectrophotometer LISA 300 plus with International Quality Control. The following were measured in serum:
(§7) 1). Triglycerides concentration (GPO-PAP kit obtained from Boehringer Mannheim GmbH (Mannheim, Germany) in accordance with the manufacturers instructions) 2). Total low density lipoprotein (LDL) and high density lipoprotein (HDL) 3). Cholesterol concentration (CHOD-PAP kit obtained from Boehringer Mannheim GmbH (Mannheim, Germany) in accordance with the manufacturers instructions); and 4). C-peptide concentration.

diabetic rats [4] = assay: Serum cholesterol and lipid profile after 5 days treatment, diabetic rats; details: for HDL cholesterol serum concentration / LDL cholesterol serum concentration / Serum total cholesterol concentration: 5 days treatment orally; for HDL cholesterol serum concentration / LDL cholesterol serum concentration / Serum total cholesterol concentration / LDL:HDL Ratio (ratios of means): n = 8; for LDL:HDL Ratio (ratios of means): after 5 days treatment
Method: as §2, §3, §5, §6, §7
(§8) The composition from Example 1 was trialled to see the effect on cholesterol levels and on serum lipid profiles. Generally the desired outcome was a decrease in low density lipoprotein (LDL), with no concomitant decrease in high density lipoprotein (HDL). It was also hypothesised that there would be a compatibility with glycaemic effects shown in Example 2.
(§9) The experimental procedures were essentially those described in Example 2.

normoglycaemic rats [5] = assay: Serum cholesterol and lipid profile after 5 days treatment, normoglycaemic rats; details: for Change in HDL serum cholesterol concentration (in words) / Change in LDL serum cholesterol concentration versus control (in words) / Change in total cholesterol serum concentration (in words): normoglycaemic (non-diabetic) rats, 5 days treatment; for HDL serum cholesterol concentration / LDL serum cholesterol concentration / Serum total cholesterol concentration / LDL:HDL Ratio (ratios of means): normoglycaemic rats, n = 8; for HDL serum cholesterol concentration / LDL serum cholesterol concentration / Serum total cholesterol concentration: 5 days treatment orally; for LDL:HDL Ratio (ratios of means): after 5 days treatment
Method: as §3, §5, §6, §7, §8, §9

[6] = test system: normoglycaemic Wistar rats; assay: Blood glucose and oral glucose tolerance test (OGTT) after 5 days oral treatment, normoglycaemic rats; details: n = 8; for Glucose blood concentration, After OGTT: 30 minutes after OGTT (glucose 4 g/kg orally) after the 5th dose; for Glucose blood concentration, After treatment (one dose daily for 5 days): MKH 4 mg/kg, stevioside 20 mg/kg orally per day, before OGTT; for Glucose blood concentration, Before treatment: baseline of the group before treatment
Method: as §1, §2, §3, §5

diabetic Wistar rats = assay: Blood glucose and OGTT after 5 days oral treatment, alloxan-diabetic rats; details: for Glucose blood concentration, After OGTT / Glucose blood concentration, After treatment (one dose daily for 5 days) / Glucose blood concentration, Before treatment: diabetic Wistar rats (alloxan), n = 8; for Glucose blood concentration, After OGTT: 30 minutes after OGTT (glucose 4 g/kg orally) after the 5th dose; for Glucose blood concentration, After treatment (one dose daily for 5 days): MKH 4 mg/kg, stevioside 20 mg/kg orally per day, before OGTT; for Glucose blood concentration, Before treatment: baseline of the group before treatment; for Effect on glucose levels under increased glucose loading during the OGTT (in words): substances given alone, rat group not given
Method: as §1, §2, §3, §4, §5

[7] = 7 days treatment, MKH 2 mg/kg, lovastatin 20 mg/kg orally

SMILES	HDL cholesterol (diabetic rats [1]) [mmol/L]	LDL cholesterol (diabetic rats [1]) [mmol/L]	LDL/HDL ratio (diabetic rats [1])	Total cholesterol (diabetic rats [1]) [mmol/L]	Change in total cholesterol (in words) (diabetic rats [1])	Change in HDL levels (in words) (diabetic rats [1]; [7])	C peptide serum concentration (diabetic rats [2]) [pmol/L]	Effect on C peptide levels (in words) (normoglycaemic rats [3])	C peptide serum concentration (normoglycaemic rats [3]) [pmol/L]	Change in LDL cholesterol levels (in words) (diabetic rats [4]; 5 days treatment)	Change in total cholesterol serum concentration (in words) (diabetic rats [4]; 5 days treatment)	HDL cholesterol serum concentration (diabetic rats [4])	LDL cholesterol serum concentration (diabetic rats [4]) [mmol/L]	Serum total cholesterol concentration (diabetic rats [4]) [mmol/L]	LDL:HDL Ratio (ratios of means) (diabetic rats [4])	Change in HDL serum cholesterol concentration (in words) (normoglycaemic rats [5])	Change in LDL serum cholesterol concentration versus control (in words) (normoglycaemic rats [5])	Change in total cholesterol serum concentration (in words) (normoglycaemic rats [5])	HDL serum cholesterol concentration (normoglycaemic rats [5]) [mmol/L]	LDL serum cholesterol concentration (normoglycaemic rats [5]) [mmol/L]	other results
CC[C@H](C)C(=O)O[C@H]1C[C@@H](C)C=C2C=C[C@H](C)[C@H](CC[C@@H]3C[C@@H](O)CC(=O)O3)[C@H]21 [Lovastatin, reference compound]	0.74 ± 0.16	0.09 ± 0.17	0.15 ± 0.29	1.19 ± 0.06	reduced total cholesterol by a similar amount	reduced HDLs significantly															
C[C@H](CCC(=O)[O-])[C@H]1CC[C@H]2[C@@H]3[C@H](O)C[C@@H]4C[C@H](O)CC[C@]4(C)[C@H]3CC(=O)[C@]12C.[Na+] [MKH, Sodium salt of 3α,7α-dihydroxy-12-oxo-5β-cholanate]	0.89 ± 0.14	0.03 ± 0.04	0.04 ± 0.04	1.21 ± 0.14	reduced total cholesterol by a similar amount	this effect was not observed; also recorded: did not do so	178.38 ± 34.25	Neither stevioside or 3α,7α-dihydroxy-12-oxo-5β-cholanate alone had statistically significant effects	230.87 ± 80.64	decreases in LDL levels and while these were not statistically significant	no significant changes	0.50 ± 0.12 !! mmol/l	0.56 ± 0.17	1.03 ± 0.26	1.12	no significant changes	significantly decreased (one third of control values)	no significant changes	0.73 ± 0.20	0.11 ± 0.04	Change in LDL:HDL ratio (in words) (diabetic rats [4]; 5 days treatment): slight increase; Change in HDL levels (in words) (diabetic rats [4]; 5 days treatment, MKH 4 mg/kg): A decrease was observed; Change in LDL levels (in words) (diabetic rats [1]; [7]): very highly significant decrease; also recorded: significantly greater than that achieved by Lovastatin; Change in LDL:HDL ratio (in words) (diabetic rats [1]; Day 7): significant decrease; Serum total cholesterol concentration (normoglycaemic rats [5]): 0.99 ± 0.30 mmol/L; LDL:HDL Ratio (ratios of means) (normoglycaemic rats [5]): 0.01; Glucose blood concentration, After OGTT [6]: 8.52 ± 3.19 mmol/L; Glucose blood concentration, After treatment (one dose daily for 5 days) [6]: 5.42 ± 1.15 mmol/L; Glucose blood concentration, Before treatment [6]: 6.82 ± 2.15 mmol/L; Glucose blood concentration, After OGTT (diabetic Wistar rats): 27.05 ± 1.17 mmol/L; Glucose blood concentration, After treatment (one dose daily for 5 days) (diabetic Wistar rats): 22.34 ± 1.15 x mmol/L; Glucose blood concentration, Before treatment (diabetic Wistar rats): 24.73 ± 2.15 mmol/L; Effect on glucose levels before and after the OGTT (in words) (diabetic Wistar rats; diabetic rats, 5 days treatment): significant decrease; Effect on glucose levels under increased glucose loading during the OGTT (in words) (diabetic Wistar rats): beneficial effects
C=C1C[C@@]23CC[C@H]4[C@@](C)(CCC[C@@]4(C)C(=O)O[C@@H]4O[C@H](CO)[C@@H](O)[C@H](O)[C@H]4O)[C@@H]2CC[C@]1(O[C@@H]1O[C@H](CO)[C@@H](O)[C@H](O)[C@H]1O[C@@H]1O[C@H](CO)[C@@H](O)[C@H](O)[C@H]1O)C3 [Stevioside]							230.12 ± 28.45	Neither stevioside or 3α,7α-dihydroxy-12-oxo-5β-cholanate alone had statistically significant effects	294 ± 93.2	highly significant decrease	no significant changes	0.85 ± 0.20 mmol/L	0.42 ± 0.09	1.39 ± 0.31	0.49	no significant changes	significantly decreased (one third of control values)	no significant changes	0.78 ± 0.18	0.1 ± 0.08	Effect on C-peptide (in words) (diabetic rats [2]; 5 days treatment): significant increases; Serum total cholesterol concentration (normoglycaemic rats [5]): 1.1 ± 0.30 mmol/L; LDL:HDL Ratio (ratios of means) (normoglycaemic rats [5]): 0.13; Glucose blood concentration, After OGTT [6]: 11.4 ± 2.9 mmol/L; Glucose blood concentration, After treatment (one dose daily for 5 days) [6]: 5.47 ± 0.67 mmol/L; Glucose blood concentration, Before treatment [6]: 6.95 ± 0.99 mmol/L; Glucose blood concentration, After OGTT (diabetic Wistar rats): 28.03 ± 1.08 mmol/L; Glucose blood concentration, After treatment (one dose daily for 5 days) (diabetic Wistar rats): 22.53 ± 1.07 mmol/L; Glucose blood concentration, Before treatment (diabetic Wistar rats): 25.14 ± 1.87 mmol/L; Effect on glucose levels under increased glucose loading during the OGTT (in words) (diabetic Wistar rats): beneficial effects
